From patent publication US20190254997A1, “METHODS FOR INDUCING STEREOCILIA ON HAIR CELLS” (The Regents of the University of California, priority 2016, published 2019)

Legend:
[1] = test system: myosin7A-positive cells (HCs) in utricular explants; assay: Effect of Notch inhibition (DAPT) on GM-damaged utricular explants, myosin7A immunoreactivity; format: cell-based, CD-1 mice; conditions: for number of myosin7A-positive cells: with or without 20 μM DAPT for 2 days then 5 days without, mean ± SD
Protocol: Effect of notch inhibition. To induce HC-like cells, two days after GM damage, we cultured utricular explants with 20 μM DAPT (N-[N-[(3,5-Difluoropheny)acetyl]-L-alanyl]L-phenylglycinetert-butyl: C23H26F2N2O4, Abcam) for 2 days, followed by 5 days without DAPT. DAPT is a prototypical y-secretase inhibitor. Since Notch signaling requires γ-secretase activity, DAPT is a potent inhibitor of this signaling pathway. As a control, we cultured GM-damaged utricles for 7 days without DAPT. Explants were analyzed for myosin7A immunoreactivity both as whole mounts and as tissue sections
Histochemical analysis. At the end of the culture period, explants were fixed for 15 min in 4% paraformaldehyde and permeabilized with 5% Triton X-100 in phosphate-buffered saline (PBS) after 3×PBS wash. Explants were then exposed to a blocking solution containing 10% bovine serum albumin (BSA), and then incubated with anti-myosin7A rabbit polyclonal antibodies (25-6790; Proteus Bioscience Inc., Ramona, Calif., USA; 1:500). Alexa-Fluor 568 goat anti-rabbit IgG (A-11011, Invitrogen, Calif., USA; 1:100) was used as the secondary antibody. At the same time, specimens were incubated in FITC-conjugated or Alexa-Fluor 633 phalloidin (1:100; Invitrogen) to label F-actin for 1 hr. Finally, the explants were incubated with DAPI for 15 min. Specimens were examined using a Leica TCS-SP2 laser-scanning confocal microscope (Leica Microsystems Inc., Wetzlar, Germany). Cells with phalloidin-positive surface structures were counted in randomly selected areas and averaged in each sample for each condition, using an evaluation reticule 100 μm on each side. Results from 6-7 samples were evaluated, based on initial observations of variability.

[2] = test system: HC stereociliary bundles and HC bodies of utricular maculae; assay: Gentamicin damage to HC stereociliary bundles and HC bodies in utricular macula explants; format: cell-based, CD-1 mice; conditions: 1mM GM for 48 hrs, utricular maculae in vitro, followed to 10 days
Text: Dissection of vestibular maculae and tissue culture. Postnatal mice were decapitated under deep anesthesia and their temporal bones were removed. Utricula maculae were dissected from the surrounding tissue in 0.01M phosphate-buffered saline, pH 7.4. The otoconial membranes were gently removed with a fine needle. Explants of utricular sensory epithelia were placed intact on type I collagen-coated cover glasses (Iwaki, Tokyo, Japan) and maintained in 24-well culture plates (Iwaki) in Dulbecco's modified Eagle's medium (Invitrogen, Eugene, Oreg., USA), supplemented with 6 g/l glucose (Wako Pure Chemicals, Osaka, Japan) and 1.5 g/l penicillin G (Wako Pure Chemicals), at 37° C. in a humidified atmosphere of 95% air and 5% CO2 for 24 hrs.
In order to examine the toxicity of gentamicin (GM) to HC stereociliary bundles and HC bodies, we damaged explants with 1mM GM (Nakarai, Japan) for 48 hrs and then maintained the explants in culture without GM for 10 days. After fixation with 4% paraformaldehyde and histochemistry (see below), we counted stereociliary bundles and HC bodies. Bundles and HC bodies were measured using a 10×40 eyepiece reticule. Each square of the reticule was 100 μm on a side. Surviving hair bundles and HC bodies were counted in each of three randomly selected fields including both striolar and extrastriolar regions, and the values obtained were averaged. […]

Molecule | number of myosin7A-positive cells [1] | number of HC bodies after GM treatment [2] | stereociliary bundles after GM treatment [2] | stereociliary bundles in DAPT-treated explants ([1]; 20 μM DAPT)
gentamicin [GM] | 25.4±5.5 /10000 μm2 | dramatically decreased | almost entirely lost | –
C[C@H](NC(=O)Cc1cc(F)cc(F)c1)C(=O)N[C@H](C(=O)OC(C)(C)C)c1ccccc1 [DAPT, N-[N-[(3,5-Difluoropheny)acetyl]-L-alanyl]L-phenylglycinetert-butyl] | 38.5±8.64 /10000 μm2 | – | – | remained very sparse
